Test results: patent publication US8927547B2, “Pyrimidine derivatives” (Noviga Research AB, priority 2010, dated 2015)

Tests used:
Assay type in all cases: cell-based
[1] = system: HCT116; experiment: FMCA, HCT116 colon cancer; details: Homo sapiens, HCT-116, read-out: EC50 (μM) in various cancer cell lines: HCT116
Source text: (§1) The Fluorometric Microculture Cytotoxicity Assay, FMCA, is a three day non-clonogenic microplate-based cell viability assay used for measurement of the cytotoxic and/or cytostatic effect of compounds in vitro (Lindhagen, E., et al. Nat Protoc, 2008. 3(8): p. 1364-9). FMCA (Larsson, R. and P. Nygren, Anticancer Res, 1989. 9(4): p. 1111-9) represents a valuable method to measure cytotoxicity in a number of cell types, both cell lines and primary cells from patients (Larsson, R., et al., Int J Cancer, 1992. 50(2): p. 177-85; Fridborg, H., et al., Eur J Cancer, 1999. 35(3): p. 424-32; Dhar, S., et al., Br J Cancer, 1996. 74(6): p. 888-96).
(§2) FMCA is based on the principle that fluorescein diacetate (FDA) is converted to the fluorescent probe fluorescein by esterases in the plasma membranes of living cells. For experiments, 96 or 384-well microplates are prepared with compounds and stored at −70° C. until use. Cells are then seeded into the drug-prepared plates and placed in an incubator for 72 h. On the last day of incubation, the plates are washed and a buffer containing FDA is added and incubated with the cells for 45 minutes. Finally the fluorescence per well is measured in a fluorometer and a Survival Index % (SI) for each compound-treated well is calculated with the equation: Compound-treated cells minus blank divided by control cells minus blank. A high SI-value indicates a large percentage of living cells and vice versa.
(§3) Compounds of the invention as well as kinase inhibitors sorafenib, sunitinib, dasatinib, and pazopanib (reference compounds) were diluted with PBS to a concentration which was ten-times higher than the desired starting concentration. Then, a Biomek 2000 liquid handling system was employed to serially dilute the compounds in a deep-well 384-well plate. From this plate, assay plates containing 5 μl compound per well were prepared with the Biomek 2000. Certain compounds precipitated when diluted with PBS, and these compounds were therefore prepared in a 96-well plate manually as described above using culture medium RPMI 1640 instead of PBS.
(§4) The compounds were also tested at five concentrations, with five times serial dilution on the following cell types: CCRF-CEM, hTERT-RPE1 (normal retinal epithelial cells), hRPTEpiC (normal renal cells) and PBMC (peripheral blood mononuclear cells). Each experiment was performed three times, except for PBMC and hRPTEpiC, which were performed twice. SI-values were calculated, graphs were plotted using GraphPadPrism 5.0 (GraphPad Software Inc. La Jolla, Calif.) and EC50-values for each cell type and compound were determined from the curves.
(§5) The compounds of the invention were also tested on further cancer cell lines related to colon cancer (HCT116; see e.g Brattain M G, et al. Cancer Res. 1981, 41, 1751-1756), breast cancer (MCF7; see e.g. Soule H D, et al. J. Natl. Cancer Inst. 1973, 51, 1409-1416), teniposide-resistant leukaemia (CEM/VM1; see e.g. Danks M K et al. Cancer Res. 1987, 47, 1297-1301), lung cancer (H69; see e.g. Gazdar A F, et al. Cancer Res. 1980, 40, 3502-3507), doxorubicin-resistant lung cancer (H69AR; see e.g. Mirski S E, et al. Cancer Res. 1987, 47, 2594-2598), myeloma (RPMI 8226; see e.g. Matsuoka Y, et al. Proc. Soc. Exp. Biol. Med. 1967, 125, 1246-1250), doxorubicin-resistant myeloma (8226/Dox40; see e.g. Dalton W S et al. Blood 1989, 15,747-752), lymphoma (U-937, see e.g. Sundstrom C, et al. Int. J. Cancer 1976, 17, 565-577), vincristin-resistant lymphoma (U-937-vcr; see e.g. Botling J, et al. Int J Cancer 1994, 15; 58 (2), 269-274), ovarian cancer (A2780; see e.g. Hamilton T C, et al. Semin Oncol. 1984, 11, 285-298), doxorubicin-resistant ovarian cancer (A2780/Adr), cisplatin-resistant ovarian cancer (A2780/Cis; see e.g. Behrens B C, et al. Cancer Res. 1987, 47, 414-418), renal cancer (ACHN; see e.g. Borden E C, et al. Cancer Res. 1982, 42(12), 4948-4953), pancreatic cancer (PANC-1, BxPC-3, and MIA PaCa-2; see e.g. Lieber M, et al. Int. […]

[2] = system: A2780; experiment: FMCA, A2780 ovarian cancer; details: Homo sapiens, read-out: EC50 (μM) in various cancer cell lines: A2780
Source text: as §1, §2, §3, §4, §5

[3] = system: RPMI 8226; experiment: FMCA, RPMI 8226 myeloma; details: Homo sapiens, read-out: EC50 (μM) in various cancer cell lines: RPMI 8226
Source text: as §1, §2, §3, §4, §5

[4] = system: ACHN; experiment: FMCA, ACHN renal cancer; details: Homo sapiens, read-out: EC50 (μM) in various cancer cell lines: ACHN
Source text: as §1, §2, §3, §4, §5

[5] = system: CEM/VM1; experiment: FMCA, CEM/VM1 teniposide-resistant leukaemia; details: Homo sapiens, read-out: EC50 (μM) in various cancer cell lines: CEM/VM1
Source text: as §1, §2, §3, §4, §5

[6] = system: U-937-vcr; experiment: FMCA, U-937-vcr vincristin-resistant lymphoma; details: read-out: EC50 (μM) in various cancer cell lines: U-937-ver
Source text: as §1, §2, §3, §4, §5

[7] = system: H69; experiment: FMCA, H69 lung cancer; details: Homo sapiens, NCI-H69, read-out: EC50 (μM) in various cancer cell lines: H69
Source text: as §1, §2, §3, §4, §5

[8] = system: A2780/Cis; experiment: FMCA, A2780/Cis cisplatin-resistant ovarian cancer; details: A2780cis, read-out: EC50 (μM) in various cancer cell lines: A2780/Cis
Source text: as §1, §2, §3, §4
(§6) The compounds of the invention were also tested on further cancer cell lines related to colon cancer (HCT116; see e.g Brattain M G, et al. Cancer Res. 1981, 41, 1751-1756), breast cancer (MCF7; see e.g. Soule H D, et al. J. Natl. Cancer Inst. 1973, 51, 1409-1416), teniposide-resistant leukaemia (CEM/VM1; see e.g. Danks M K et al. Cancer Res. 1987, 47, 1297-1301), lung cancer (H69; see e.g. Gazdar A F, et al. Cancer Res. 1980, 40, 3502-3507), doxorubicin-resistant lung cancer (H69AR; see e.g. Mirski S E, et al. Cancer Res. 1987, 47, 2594-2598), myeloma (RPMI 8226; see e.g. Matsuoka Y, et al. Proc. Soc. Exp. Biol. Med. 1967, 125, 1246-1250), doxorubicin-resistant myeloma (8226/Dox40; see e.g. Dalton W S et al. Blood 1989, 15,747-752), lymphoma (U-937, see e.g. Sundstrom C, et al. Int. […]

[9] = system: U-937; experiment: FMCA, U-937 lymphoma; details: Homo sapiens, read-out: EC50 (μM) in various cancer cell lines: U-937
Source text: as §1, §2, §3, §4, §5

[10] = system: A2780/Adr; experiment: FMCA, A2780/Adr doxorubicin-resistant ovarian cancer; details: read-out: EC50 (μM) in various cancer cell lines: A2780/Adr
Source text: as §1, §2, §3, §4, §6

[11] = system: 8226/Dox40; experiment: FMCA, 8226/Dox40 doxorubicin-resistant myeloma; details: read-out: EC50 (μM) in various cancer cell lines: 8226/Dox40
Source text: as §1, §2, §3, §4, §5

[12] = system: MCF7; experiment: FMCA, MCF7 breast cancer; details: Homo sapiens, read-out: EC50 (μM) in various cancer cell lines: MCF7
Source text: as §1, §2, §3, §4, §5

[13] = system: CCRF-CEM cancer cells - leukaemia; experiment: Fluorometric Microculture Cytotoxicity Assay (FMCA), CCRF-CEM; details: Homo sapiens, 72 h incubation
Source text: as §1, §2
In subsequent experiments, compounds were tested, along with kinase inhibitors (dasatinib, pazopanib, sorafenib, and sunitinib) as described above. Initially, the acute lymphoblastic leukaemia cell line CCRF-CEM (see e.g. Foley G E, et al. Cancer 1965, 18, 522-529) was used throughout. In the assay plates, medium was added to six empty wells (blank wells) and wells were filled with PBS and cell suspension and served as control wells. SI-values were then calculated for each compound-treated well as described above. All experiments were conducted twice and a new batch of plates was prepared for each experiment.
For dose-response experiments, 384-well plates were prepared as follows:
as §3, §4

[14] = system: H69AR; experiment: FMCA, H69AR doxorubicin-resistant lung cancer; details: Homo sapiens, read-out: EC50 (μM) in various cancer cell lines: H69 AR
Source text: as §1, §2, §3, §4, §5

Compound	EC50 [1] [µM]	EC50 [2] [µM]	EC50 [3] [µM]	EC50 [4] [µM]	EC50 [5] [µM]	EC50 [6] [µM]	EC50 [7] [µM]	EC50 [8] [µM]	EC50 [9] [µM]	EC50 [10] [µM]	EC50 [11] [µM]	EC50 [12] [µM]	EC50 [14] [µM]	EC50 [13] [nM]
c1cc(Nc2nccc(NCc3ccc4[nH]ccc4c3)n2)c2cn[nH]c2c1 [Example 76, N^4-(1H-indol-5-ylmethyl)-N^2-(1H-indazol-4-yl)pyrimidine-2,4-diamine]	3.09	0.34	0.7	1.59	0.22	0.4	12.7	–	0.19	–	1.1	3.08	0.34	230
Cc1cc(Nc2ccc3[nH]c(C)cc3c2)nc(NCc2ccc3[nH]ccc3c2)n1 [Example 83, N^2-(1H-indol-5-ylmethyl)-6-methyl-N^4-(2-methyl-1H-indol-5-yl)pyrimidine-2,4-diamine]	–	–	–	–	–	–	–	–	–	–	–	–	–	< 10000
COc1ccc2[nH]cc(CCNc3nc(Cc4ccccc4)cc(NCc4ccc5[nH]ccc5c4)n3)c2c1 [Example 85, N^4-(1H-indol-5-ylmethyl)-6-benzyl-N^2-[2-(5-methoxy-1H-indol-3-yl)ethyl]pyrimidine-2,4-diamine]	–	–	–	–	–	–	–	–	–	–	–	–	–	< 10000
c1cc(Nc2ccc3[nH]cnc3c2)nc(NCc2ccc3[nH]ccc3c2)n1 [Example 95, N^2-(1H-indol-5-ylmethyl)-N^4-(1H-benzo[d]imidazol-5-yl)pyrimidine-2,4-diamine]	–	–	–	–	–	–	–	–	–	–	–	–	–	900
Cc1nc2cc(Nc3ccnc(NCc4ccc5[nH]ccc5c4)n3)ccc2[nH]1 [Example 96, N^2-(1H-indol-5-ylmethyl)-N^4-(2-methyl-1H-benzo[d]imidazol-5-yl)pyrimidine-2,4-diamine]	–	–	–	–	–	–	–	–	–	–	–	–	–	680
CNC(=O)c1cc(Oc2ccc(NC(=O)Nc3ccc(Cl)c(C(F)(F)F)c3)cc2)ccn1 [Ref. 1, sorafenib, reference compound]	–	–	–	–	–	–	–	–	–	–	–	–	–	8300
CCN(CC)CCNC(=O)c1c(C)[nH]c(/C=C2\C(=O)Nc3ccc(F)cc32)c1C [Ref. 2, sunitinib, reference compound]	–	–	–	–	–	–	–	–	–	–	–	–	–	14100
Cc1nc(Nc2ncc(C(=O)Nc3c(C)cccc3Cl)s2)cc(N2CCN(CCO)CC2)n1 [Ref. 3, dasatinib, reference compound]	–	–	–	–	–	–	–	–	–	–	–	–	–	9700

Second part, led by results:

EC50 [1] [µM]	EC50 [2] [µM]	EC50 [3] [µM]	EC50 [4] [µM]	EC50 [5] [µM]	EC50 [6] [µM]	EC50 [7] [µM]	EC50 [8] [µM]	EC50 [9] [µM]	EC50 [10] [µM]	EC50 [11] [µM]	EC50 [12] [µM]	EC50 [14] [µM]	Compound	EC50 [13] [nM]
6.7	0.7	0.5	2.54	0.12	0.07	10.8	0.35	0.07	2.4	0.37	9	–	c1cc(Nc2nccc(NCc3ccc4[nH]ccc4c3)n2)c2cc[nH]c2c1 [Example 1, N^4-(1H-indol-5-ylmethyl)-N^2-(1H-indol-4-yl)pyrimidine-2,4-diamine]	330
0.51	0.28	0.23	1.26	0.21	0.19	9.35	0.22	0.19	0.6	0.41	4.43	0.46	Cc1cc2cc(Nc3ccnc(NCc4ccc5[nH]ccc5c4)n3)ccc2[nH]1 [Example 24, N^2-(1H-indol-5-ylmethyl)-N^4-(2-methyl-1H-indol-5-yl)pyrimidine-2,4-diamine]	380
1.33	0.29	0.23	1.6	0.05	0.32	4.18	–	0.08	–	1.19	2.33	0.29	COc1ccc2[nH]cc(CCNc3nccc(NCc4ccc5[nH]c(C)cc5c4)n3)c2c1 [Example 64, N^2-[2-(5-methoxy-1H-indol-3-yl)ethyl]-N^4-(2-methyl-1H-indol-5-ylmethyl)pyrimidine-2,4-diamine]	50
2.45	0.78	1.83	3.32	0.27	0.99	11.6	–	0.35	–	10	3.35	0.64	COc1ccc2[nH]cc(CCNc3nccc(NCc4ccc5[nH]ncc5c4)n3)c2c1 [Example 66, N^4-(1H-indazol-5-ylmethyl)-N^2-[2-(5-methoxy-1H-indol-3-yl)ethyl]pyrimidine-2,4-diamine]	210
2.47	1.37	5.01	5.43	0.33	1.74	37.2	–	0.22	–	24.4	12.4	0.71	Cc1cc2cc(Nc3ccnc(NCc4ccc5[nH]cnc5c4)n3)ccc2[nH]1 [Example 67, N^2-(1H-benzo[d]imidazol-5-ylmethyl)-N^4-(2-methyl-1H-indol-5-yl)pyrimidine-2,4-diamine]	210
1.16	0.33	0.45	1.62	0.19	0.27	5.47	–	0.21	–	2.58	2.06	0.35	COc1ccc2[nH]cc(CCNc3nc(C)cc(NCc4ccc5[nH]ccc5c4)n3)c2c1 [Example 84, N^4-(1H-indol-5-ylmethyl)-N^2-[2-(5-methoxy-1H-indol-3-yl)ethyl]-6-methylpyrimidine-2,4-diamine]	40
